Laboratory results taken from publication PMC5826917, “A small molecule inhibitor of Nicotinamide N-methyltransferase for the treatment of metabolic disorders” (Scientific Reports, 2018).

What was measured:
[1] = biological target: T1, mouse NNMT (mNNMT) (Mus musculus, UniProt O55239); test: Fluorescence based NNMT enzymatic assay (mouse); details: fluorescence based biochemical assay
T1 construct: The full length NNMT proteins (1–264 amino acids) of human & mouse; 6 × His tag (N); TEV cleavage site (ENLYFQG) (N); made in house; host or cells: E. coli Rosetta2(DE3)pLysS
T1 sequence (O55239 whole entry, the tested form may be a part): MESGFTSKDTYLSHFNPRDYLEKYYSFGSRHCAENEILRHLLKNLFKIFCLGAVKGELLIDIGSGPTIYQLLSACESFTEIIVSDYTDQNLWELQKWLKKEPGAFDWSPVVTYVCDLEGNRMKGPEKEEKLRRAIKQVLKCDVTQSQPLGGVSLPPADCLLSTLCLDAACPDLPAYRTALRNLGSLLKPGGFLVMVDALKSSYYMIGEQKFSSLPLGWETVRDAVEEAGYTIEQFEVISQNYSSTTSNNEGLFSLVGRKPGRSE
Experimental: NNMT activity was measured with the fluorescence enzymatic assay[22],[23]. MNA formed in the NNMT reaction reacts with acetophenone in the presence of KOH and formic acid and forms a fluorescent product 2, 7- naphthyridine. JBSNF-000088 was screened using human, mouse and monkey NNMT enzymes. Different concentrations of inhibitors were preincubated along with the enzyme for 30 minutes at room temperature. Reaction was initiated by addition of SAM and nicotinamide mixture (7 µM, 20 µM, 8 µM SAM and 6 µM, 20 µM, 9 µM nicotinamide for human, mouse and monkey NNMT assays respectively) for 60 minutes at 37 °C. The final assay reaction mixture contained a buffer of 100 mM Tris Hcl pH 7.5, 0.04% BSA, 2 mM dithiothreitol and 1% DMSO. At the end of the incubation, the reaction was stopped by the addition of ethanol: acetophenone mix (75% ethanol: 25% acetophenone) and 5 M potassium hydroxide prepared with 50% ethanol. The reaction was incubated for 15 minutes following which 100 µL of 60% formic acid was added. […] The fluorescent product 2, 7- naphthyridine was measured using a Tecan reader with excitation at 375 nm and emission at 430 nm. The IC50 values were determined by fitting the inhibition curves (percent inhibition versus inhibitor concentration) using a four parametric sigmoidal dose response using GraphPad Prism software.

[2] = biological target: Acetylcholinesterase (AChE) (Homo sapiens, UniProt P22303); test: Selectivity panel: AChE; assay type: biochemical; details: read-out: I% (antagonistic or inhibitory), AChE
Chain of Acetylcholinesterase (AChE) (P22303 32-614): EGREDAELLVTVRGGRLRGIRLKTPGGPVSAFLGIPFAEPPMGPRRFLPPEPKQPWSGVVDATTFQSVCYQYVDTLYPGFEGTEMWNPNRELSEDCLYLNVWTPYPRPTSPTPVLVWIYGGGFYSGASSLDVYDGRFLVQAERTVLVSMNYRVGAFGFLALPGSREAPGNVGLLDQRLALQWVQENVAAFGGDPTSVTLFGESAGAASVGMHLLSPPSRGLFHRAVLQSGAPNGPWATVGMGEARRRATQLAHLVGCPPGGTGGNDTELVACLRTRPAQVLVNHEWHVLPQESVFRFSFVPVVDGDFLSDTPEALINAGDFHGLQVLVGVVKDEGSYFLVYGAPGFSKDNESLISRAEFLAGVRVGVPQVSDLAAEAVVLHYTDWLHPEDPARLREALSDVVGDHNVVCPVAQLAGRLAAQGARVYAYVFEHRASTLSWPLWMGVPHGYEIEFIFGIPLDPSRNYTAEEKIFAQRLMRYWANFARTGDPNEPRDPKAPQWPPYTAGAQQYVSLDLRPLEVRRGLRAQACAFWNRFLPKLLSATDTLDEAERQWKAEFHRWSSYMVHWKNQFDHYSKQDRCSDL
Experimental: (§1) Supplement 41598_2018_22081_MOESM1_ESM.docx, table 2: Supplementary table 2: Selectivity profile of JBSNF-000088 (at 10 µM) vs a panel of 34 receptors, channels and enzymes. | column: I% (antagonistic or inhibitory)

[3] = test system: cytochrome P450 enzymes; details: 20 µM
[4] = biological target: Norepinephrin (Noradrenalin) Transporter (Homo sapiens, UniProt P23975); test: Selectivity panel: norepinephrine transporter; assay type: binding; details: read-out: I% (antagonistic or inhibitory), Norepinephrin (Noradrenalin) Transporter
Chain of Norepinephrin (Noradrenalin) Transporter (P23975 whole entry): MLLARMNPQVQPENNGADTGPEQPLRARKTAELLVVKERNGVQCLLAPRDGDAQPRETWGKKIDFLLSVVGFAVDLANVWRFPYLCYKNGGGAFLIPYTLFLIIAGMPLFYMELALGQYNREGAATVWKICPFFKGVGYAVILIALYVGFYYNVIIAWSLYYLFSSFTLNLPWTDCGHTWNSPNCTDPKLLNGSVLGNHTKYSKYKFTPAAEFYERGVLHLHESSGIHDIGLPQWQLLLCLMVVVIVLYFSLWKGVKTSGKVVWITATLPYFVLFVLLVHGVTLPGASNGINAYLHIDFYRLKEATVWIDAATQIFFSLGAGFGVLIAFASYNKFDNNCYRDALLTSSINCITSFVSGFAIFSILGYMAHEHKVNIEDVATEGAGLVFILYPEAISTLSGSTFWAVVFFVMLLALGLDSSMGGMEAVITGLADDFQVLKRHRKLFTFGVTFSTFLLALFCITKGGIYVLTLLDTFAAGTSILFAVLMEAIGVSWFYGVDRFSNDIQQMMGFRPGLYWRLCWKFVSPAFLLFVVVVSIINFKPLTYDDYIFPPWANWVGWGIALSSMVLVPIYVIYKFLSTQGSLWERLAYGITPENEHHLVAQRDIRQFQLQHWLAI
Experimental: as §1

[5] = biological target: Muscarinic Receptor 3 (CHRM3) (Homo sapiens, UniProt P20309); test: Selectivity panel: CHRM3; assay type: cell-based
Chain of Muscarinic Receptor 3 (CHRM3) (P20309 whole entry): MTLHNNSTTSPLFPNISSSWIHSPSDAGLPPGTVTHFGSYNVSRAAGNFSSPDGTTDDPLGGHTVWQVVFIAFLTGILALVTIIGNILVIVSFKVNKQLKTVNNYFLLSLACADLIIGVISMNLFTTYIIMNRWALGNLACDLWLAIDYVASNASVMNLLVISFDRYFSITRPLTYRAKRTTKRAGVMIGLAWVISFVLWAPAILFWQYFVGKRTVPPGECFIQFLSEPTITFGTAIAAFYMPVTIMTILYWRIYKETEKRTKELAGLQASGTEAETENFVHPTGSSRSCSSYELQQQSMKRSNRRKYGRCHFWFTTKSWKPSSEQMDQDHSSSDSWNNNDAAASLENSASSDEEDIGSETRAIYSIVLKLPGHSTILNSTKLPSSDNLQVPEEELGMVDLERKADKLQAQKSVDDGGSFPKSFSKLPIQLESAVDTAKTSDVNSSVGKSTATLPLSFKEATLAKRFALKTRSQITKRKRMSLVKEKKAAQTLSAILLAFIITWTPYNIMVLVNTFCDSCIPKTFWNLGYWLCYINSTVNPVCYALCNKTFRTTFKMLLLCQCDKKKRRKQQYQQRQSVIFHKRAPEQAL
Experimental: Supplement 41598_2018_22081_MOESM1_ESM.docx, table 2: Supplementary table 2: Selectivity profile of JBSNF-000088 (at 10 µM) vs a panel of 34 receptors, channels and enzymes. | column: E% (agonistic); I% (antagonistic or inhibitory)

[6] = physchem; details: aqueous buffer
[7] = in vitro; details: human, hepatocytes

COc1ccc(C(N)=O)cn1 [JBSNF-000088, 6-methoxynicotinamide]
IC50 [1]: 5 µM | inhibition at 10 µM [2]: 2% | Cyp Inhibition [3]: >20 µM | inhibition at 10 µM [4]: 9% | E% (agonistic), CHRM3 ([5]; 10 µM): -1% | inhibition at 10 µM ([5]; read-out: I% (antagonistic or inhibitory), CHRM3): 21% | solubility [6]: > 200 µM | remaining at 0.5 h [7]: > 70%
